Tests used:
[1] = system: serum-free expanded CD34^+ cells; test: Ex vivo Mk induction from serum-free expanded CD34+ cells, 1-week induction, TNC count and Mk count (CD41a+CD61+); type: cell-based, human; details: preliminary screening of serum substitutes (data not shown)
Protocol: Each experiment was repeated at least four times. […] (1978), Statistics for Experimenters: An Introduction to Design, Data Analysis, and Model Building, Wiley, New York). In addition, the statistical significance was determined by an F-test, and the significance of the regression coefficient was analyzed by a t-test. […] After cultivation for 1 week, the cells were collected and subjected to the TNC count as described above and a megakaryocyte count (Mk count) so as to evaluate the ex vivo megakaryocytopoietic effects of the tested serum substitutes and cytokines. The Mk count was conducted by labeling the collected cells with CD41a-FITC and CD61-PE and analyzed according to the operating procedure described in the following section, entitled “4. […] The incubation was terminated by washing three times with 1 mL FACS buffer. Optionally, the first antibody-labeled cells were further incubated with a second antibody conjugated with PE or FITC in the same manner. After washing with FACS buffer, the labeled cells were resuspended in 1 mL FACS buffer and analyzed on a FACSCalibur analyzer (Becton-Dickinson, NJ, USA). The data were analyzed by CellQuest software. A replicate sample incubated with FITC- or PE-conjugated mouse IgG1 was used as an isotype control for specificity. […] SF-Mk as established in Example 1, IMDM+10% FBS, IMDM+2% FBS, […]-VIVO 10, X-VIVO 15, X-VIVO 20,[…], DMEM, RPMI 1640, α-MEM, BME medium, […] medium, and Medium 199, respectively. IMDM+10% FBS, IMDM+2% FBS, […]-VIVO 10, X-VIVO 15, X-VIVO 20,[…], DMEM, RPMI 1640, α-MEM, BME medium, […] medium and Medium 199 were respectively supplemented with the cytokine cocktail (CC) as screened in Example 1. […] After 1-week induction, the Mk number of each group was calculated. […] IMDM supplemented with a serum substitute consisting of 4.9 g/L BSA, 2.72 μg/mL insulin, and 80 μg/mL transferrin (based on the applicants' previous study, unpublished data) and the reference cytokine cocktail as previously reported in Te-Wei Chen et al. (2009), supra; and • (3) FBS group: IMDM supplemented with 10% FBS and the reference cytokine cocktail.

[2] = system: hematopoietic progenitor cells (HPCs); details: cited from earlier work
CD34^+-selected cells = details: PMP 200 ng/mL; TPO 10 ng/mL, IL-3 10 ng/mL; cited from earlier work
[3] = mpIL added to growth factor cocktail

**Q.** Which “effect on ex vivo megakaryocytopoiesis” value [1] does the source give for transferrin here?
**A.** Its value is “significantly positive effects”.

**Q.** With CC(=O)C(=O)[O-].[Na+] [sodium pyruvate] as the compound, how does the “effect on ex vivo megakaryocytopoiesis” value [1] read?
**A.** Its value is “no effect”.

**Q.** For mpIL: recombinant mpl ligand, which Mk purity level [2, 3] is on record?
**A.** The Mk purity level was 80%.

**Q.** And the “final yield of Mks” value [2, 3]?
**A.** The value was 4×10^5.

**Q.** What about the cell number ([2]; mpIL alone) of the same compound?
**A.** The cell number was 1.5×10^5 cells.

**Q.** For insulin, which “effect on ex vivo megakaryocytopoiesis” value [1] is on record?
**A.** The value was “significantly positive effects”.

**Q.** With promegapoietin [PMP] as the compound, how does the megakaryocytopoietic activity (CD34^+-selected cells) read?
**A.** The megakaryocytopoietic activity was “comparable to that achieved with TPO plus IL-3”.

**Q.** For OCCS [Step 2-ME, 2-mercaptoethanol], which “effect on ex vivo megakaryocytopoiesis” value [1] is on record?
**A.** The value was “no effect”.

**Q.** Which “effect on ex vivo megakaryocytopoiesis” value [1] does the source give for NC(=O)CC[C@H](N)C(=O)O [L-glutamine] here?
**A.** Its value is “no effect”.

Source: patent US20100227401A1, “MEDIA AND PROCESSES FOR THE EX VIVO PRODUCTION OF MEGAKARYOCYTES FROM HUMAN CD34+ CELLS” (FOOD INDUSTRY RESEARCH AND DEVELOPMENT INSTITUTE, priority 2003, published 2010)
